Experimental findings from EP0391077A1, “O56-alkyl derivatives of aglycone and pseudoaglycones of teicoplanin” (GRUPPO LEPETIT S.p.A., priority 1989, dated 1990) are described below.

Structures can show the parent of a compound that is named as a salt.

A short description of the data set: physchem. The format is physicochemical. The note with it: methylcellosolve:water 4:1, pKMCS. The procedure: The potentiometric determinations reported in the examples are run in Methylcellosolve : water, 4:1 (v/v). An excess of 0.01 N HCl In this solvent mixture was added to the sample and the resulting solution was titrated with 0.01 N NaOH in the same solvent mixture. The pK value obtained under the conditions is reported below as pKMCS, wherein MCS stands for Methylcellosolve.

What is called pKa is the negative logarithm of the acid dissociation constant. Lower therefore signals a stronger acid or weaker base.

On to `COC(=O)C1NC(=O)C2NC(=O)C(NC(=O)C3NC(=O)C4NC(=O)C(Cc5ccc(c(Cl)c5)Oc5cc3cc(c5OC(CCO)C(=O)O)Oc3ccc(cc3Cl)C2O)NC(=O)C(N)c2ccc(O)c(c2)Oc2cc(O)cc4c2)c2ccc(O)c(c2)-c2c(O)cc(O)cc21` (centres unmarked) [Compound 3, O⁵⁶ -(1-carboxy-3-hydroxypropyl)deglucoteicoplanin methyl ester hydrochloride], for which the pKa came to 6. Then `COC(=O)C1NC(=O)C2NC(=O)C(NC(=O)C3NC(=O)C4NC(=O)C(Cc5ccc(c(Cl)c5)Oc5cc3cc(c5OCCN3CCCC3)Oc3ccc(cc3Cl)C2O)NC(=O)C(N)c2ccc(O)c(c2)Oc2cc(O)cc4c2)c2ccc(O)c(c2)-c2c(O)cc(O)cc21` (centres unmarked) [Compound 13, O⁵⁶-[2-(1-pyrrolidinyl)-ethyl]deglucoteicoplanin methyl ester dihydrochloride], with 6.4.
